Reference: patent US10227356B2, “Compounds, compositions and methods for inhibiting CNKSR1” (Phusis Therapeutics, Inc., priority 2015, dated 2019)
Read-outs that look alike come from different tables or passages of the source.

Experiments:
[1] = Pharmacokinetics (PK); format: in vivo; parameters: AUC: concentration or dose not given beside the values; conditions: for half-life: read-out: PK T1/2 (converted)
[2] = tested on: mut-KRas NSCLC lines; assay: Proliferation assay 2D, mut-KRas NSCLC lines; format: cell-based; conditions: for In vitro IC50 against mut-KRas NSCLC 2D ave: mean of 12 mut-KRas NSCLC lines; for IC50: range across mut-Kras cell lines, read-out: In vitro IC50 against mut-KRas NSCLC 2D range
Protocol: A panel of 30 cell lines and an extensive characterization were obtained from Dr. John Minna (UTSW). All cell lines were cultured in RPMI 1640 with 10% FBS. Cells were treated with concentrations of agents at concentrations 0.01 to 50 μM and evaluated as described above. IC50's were determined using Excelfit.

[3] = tested on: mut-KRas NSCLC lines; assay: Proliferation assay 3D, mut-KRas NSCLC lines; format: cell-based; conditions: for In vitro IC50 against mut-KRas NSCLC 3D ave: mean of 6 mut-KRas NSCLC lines; for IC50: range across mut-Kras cell lines, read-out: In vitro IC50 against mut-KRas NSCLC 3D range
Protocol: The plates were optimized for the best cell density and found to be 20,000 cells per mL. The lid was removed from a 96-well Greiner plate and turned upside down. 20 μL of the 20,000 cells per mL suspension was then added directly into the middle of the circles found on the lid of the 96-well plate forming a small drop. 100 μL of media was added into the corresponding wells, used to maintain the […] of the drops, and the lid was flipped back over carefully placing it back onto the plate without disturbing the drop. The plate was then placed into the incubator for 3 days to allow the cells to migrate to the bottom of the drop due to gravity. After 3 days, […] of media was added to the corresponding wells a SCIVAX 96-well plate. The lid from the Greiner 96-well plate was removed and placed onto the SCIVAX plate allowing the drop to come in contact with the media and placed back into the incubator. After one hour, 200 μL of media was removed from the corresponding wells carefully without disturbing the spheroid and imaged.

[4] = tested on: wt-KRAS cells; assay: Proliferation assay, wt-KRAS cell lines; format: cell-based; conditions: read-out: Ave IC50 wt-KRAS
Protocol: (§1) These cells were cultured in McCoys media with 10% FBS to 80% confluency. […] Cells were incubated for 72 hours with the drugs, and then viability was assessed using an MTS viability assay. Cells were exposed to MTS reagent (Promega) dissolved in PBS (Hyclone) at a concentration of 200 μL reagent/mL media for 2 hours. Absorbance was then read at 490 nm, and viability was expressed as a percentage normalized between the negative control (no cells plated) and the condition of cells with no drug added (100% viability) normalized as the upper limit of viability. A panel of 30 cell lines and an extensive characterization were obtained from Dr. John Minna (UTSW). All cell lines were cultured in RPMI 1640 with 10% FBS. […] IC50's were determined using Excelfit.

[5] = tested on: mut-KRAS cells; assay: Proliferation assay, mut-KRAS cell lines; format: cell-based; conditions: read-out: Ave IC50 mut-KRAS
Protocol: as §1

[6] = molecular target: T1, AKT1 PH-domain (Homo sapiens, UniProt P31749); assay: Surface plasmon resonance binding to AKT PH-domain; conditions: SPR; ND = no binding determined
T1 construct: The PH-domain His-fusion proteins (CNK1 and AKT1) were expressed and immobilized on a NTA chip; made in house
T1 sequence (P31749 5-108 limits assumed): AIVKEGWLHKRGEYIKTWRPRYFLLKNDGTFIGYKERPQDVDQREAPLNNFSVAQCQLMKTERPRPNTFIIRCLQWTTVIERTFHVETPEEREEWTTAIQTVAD
Protocol: All interaction analyses were done with a Biacore T200 Control Software v3.2, and BIAevaluation v2.0 analysis software (Biacore). The PH-domain His-fusion proteins (CNK1 and AKT1) were expressed and immobilized on a NTA chip to a level of 10,000 response units or less. Small molecule analytes at concentrations ranging from 50 μM to 0.010 μM were injected at a high flow rate (30 μL/min). DMSO concentrations in all samples and running buffer were 1-5% (v/v) […]
A commercially available docking package GLIDE was chosen as the docking algorithm used to select and optimize compounds, providing a GlideScore as a rough estimate of binding affinity that was used to rank and select the best compounds. Additionally, ligand-based approaches provided an alternative to structure based drug discovery. Ligand-based virtual screening methodologies can take into account shape and electrostatics and the pharmacophoric features (acceptor, donor, hydrophobic, aromatic, etc.) of its functional groups. Inositol tetraphosphate (IP4) binding to the PH-domain of CNKSR1 provided a good starting point for shape screening. Both structure-based and ligand-based approaches were used to find novel compounds and to refine and improve lead compounds (Tables 2, 3 and 4). SPR interaction analyses for the compounds were performed with a Biacore T200, using BiacoreT200 Control Software v3.2 and BIAevaluation v2.0analysis software (Biacore).

[7] = molecular target: T2, PH-domain of CNKSR1 (Homo sapiens, UniProt Q969H4); assay: Surface plasmon resonance binding to CNK PH-domain
T2 construct: The PH-domain His-fusion proteins (CNK1 and AKT1) were expressed and immobilized on a NTA chip; made in house
T2 sequence (Q969H4 403-502 limits assumed): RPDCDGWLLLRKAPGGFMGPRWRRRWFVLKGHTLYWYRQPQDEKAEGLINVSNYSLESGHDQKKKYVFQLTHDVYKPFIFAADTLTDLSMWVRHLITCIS
Text: The PH-domain His-fusion proteins (CNK1 and AKT1) were expressed and immobilized on a NTA chip to a level of 10,000 response units or less.
Additionally, ligand-based approaches provided an alternative to structure based drug discovery.

[8] = molecular target: T3, CNK1 (Homo sapiens, UniProt Q969H4); assay: SPR competition, CNK1 binding to PIP3; conditions: read-out: SPR Competition Percent inhibition of CNK1 binding to PIP3 at 50 μM, X = none
T3 construct: The PH-domain His-fusion proteins (CNK1 and AKT1) were expressed and immobilized on a NTA chip; made in house
T3 sequence (Q969H4 403-502 limits assumed): T2 sequence (Q969H4 403-502 limits assumed)

Row | SMILES | AUC ([1]; in vivo) | half-life ([1]; in vivo) | In vitro IC50 against mut-KRas NSCLC 2D ave [2] | IC50 [2] | IC50 [4] | IC50 [5] | further results
1 | COc1c(/C=C/C(=O)N2CCN(C)CC2)c(NS(=O)(=O)c2cccs2)cc2c1OCO2 [Compound 111] | 30000 ng·h/mL | 60 min | 19.2 µM | 0.6 to 100 µM | 33.7 µM | 4.1 µM | In vitro IC50 against mut-KRas NSCLC 3D ave [3]: 4.1 µM; IC50 [3]: 120 to 13200 nM
2 | COc1c(/C=C/C(=O)N2CCOCC2)c(NS(=O)(=O)c2cccs2)cc2c1OCO2 [Compound 109] | 1200 ng·h/mL | 45 min | 18.9 µM | 0.1 to 100 µM | 100 µM | 6.5 µM | –
3 | CCOC(=O)CCc1cc(NS(=O)(=O)c2cccs2)c2c(c1OC)OCO2 [Compound 85, ethyl 3-(4-methoxy-7-(thiophene-2-sulfonamido)benzo[d][1,3]dioxol-5-yl)propanoate] | – | – | – | – | – | – | Kd [6]: > 500 µM; Kd ([7]; SPR, ND = no binding determined, read-out: CNK KD): > 500 µM
4 | CCOC(=O)/C=C/c1c(NS(=O)(=O)c2cccs2)cc2c(c1OC)OCO2 [Compound 151, ethyl 3-[4-methoxy-6-(thiophene-2-sulfonamido)-2H-1,3-benzodioxol-5-yl]prop-2-enoate] | – | 30 min | 18 µM | 0.5 to 100 µM | – | – | PK metabolism (remark in place of AUC) ([1]; AUC NA): rapid; In vitro IC50 against mut-KRas NSCLC 3D ave [3]: 0.69 µM; IC50 [3]: 25 to 2700 nM
5 | CN1CC(=O)N(/C=C/c2cc(NS(=O)(=O)c3cccs3)c3c(c2O)OCO3)C1=O [Compound 91, (E)-N-(7-hydroxy-6-(2-(3-methyl-2,5-dioxoimidazolidin-1-yl)vinyl)benzo[d][1,3]dioxol-4-yl)thiophene-2-sulfonamide] | – | 60 min | 23 µM | 6 to 35 µM | – | – | Cmax ([1]; in vivo, printed in the T1/2/AUC column): 2200 nM; Kd ([7]; Summary table for CNKSR1 inhibitors, read-out: SPR Kd): 36 µM
6 | CCOC(=O)/C=C/c1cc(NS(=O)(=O)c2cccs2)c2c(c1OC)OCCO2 [Compound 116] | – | – | – | – | – | – | IC50 ([5]; average over mut-KRAS lines): 100 µM
7 | COc1c(/C=C/C(N)=O)c(NS(=O)(=O)c2cccs2)cc2c1OCO2 [Compound 107] | 34500 ng·h/mL | 192 min | 19.5 µM | 1 to 100 µM | 100 µM | 1.5 µM | In vitro IC50 against mut-KRas NSCLC 3D ave [3]: 1.5 µM; IC50 [3]: 820 to 75000 nM
8 | CNC(=O)/C=C/c1c(NS(=O)(=O)c2cccs2)cc2c(c1OC)OCO2 [Compound 106] | 7000 ng·h/mL | 102 min | 16.3 µM | 0.8 to 100 µM | 68 µM | 8.4 µM | In vitro IC50 against mut-KRas NSCLC 3D ave [3]: 8.4 µM; IC50 [3]: 96 to 75000 nM
9 | COc1c(/C=C/C(=O)O)c(NS(=O)(=O)c2cccs2)cc2c1OCCO2 [Compound 114] | – | – | 57 µM | 12.1 to 100 µM | 100 µM | 85 µM | –
10 | CCOC(=O)/C=C/c1cc(NS(=O)(=O)c2cccs2)c2c(c1OC)OCO2 [Compound 86, (E)-ethyl 3-(4-methoxy-7-(thiophene-2-sulfonamido)benzo[d][1,3]dioxol-5-yl)acrylate] | – | – | – | – | – | – | Kd [6]: > 500 µM
11 | CCNC(=O)/C=C/c1c(NS(=O)(=O)c2cccs2)cc2c(c1OC)OCO2 [Compound 105] | – | – | 6.7 µM | 1.6 to 94 µM | 100 µM | 10 µM | –
12 | COc1c(/C=C/CO)c(NS(=O)(=O)c2cccs2)cc2c1OCCO2 [Compound 115] | – | – | 11.2 µM | 1.6 to 100 µM | 100 µM | 39.1 µM | –
13 | COc1c(/C=C/C(=O)NCc2ccco2)c(NS(=O)(=O)c2cccs2)cc2c1OCO2 [Compound 108] | 3410 ng·h/mL | 60 min | 35 µM | 0.2 to 100 µM | 100 µM | 5.2 µM | –
14 | COc1c(/C=C/C(=O)O)cc(NS(=O)(=O)c2cccs2)c2c1OCO2 [Compound 84, (E)-3-(4-methoxy-7-(thiophene-2-sulfonamido)benzo[d][1,3]dioxol-5-yl)acrylic acid] | – | – | – | – | – | – | AKT KD [6]: No binding
15 | COc1c(/C=C/CO)c(NS(=O)(=O)c2cccs2)cc2c1OCO2 [Compound 152, N-{6-[(1E)-3-hydroxyprop-1-en-1-yl]-7-methoxy-2H-1,3-benzodioxol-5-yl}thiophene-2-sulfonamide] | 7000 ng·h/mL | 186 min | 20 µM | 0.1 to 100 µM | – | – | IC50 [3]: 15 to 260 nM
16 | COc1c(/C=C/C(=O)NCC(C)O)c(NS(=O)(=O)c2cccs2)cc2c1OCO2 (stereo not drawn) [Compound 112] | – | – | 65 µM | 19 to 100 µM | 100 µM | 25 µM | –
17 | COc1c(/C=C2\SC(=S)NC2=O)c(NS(=O)(=O)c2cccs2)cc2c1OCO2 [Compound 103] | – | – | 25 µM | 5.1 to 60 µM | – | – | IC50 ([4]; average over wt-KRAS lines): 95 µM; IC50 ([5]; average over mut-KRAS lines): 14.7 µM
18 | O=c1ccoc2c3c(cc(NS(=O)(=O)c4cccs4)c12)OCO3 [Compound 104] | – | – | – | – | – | – | IC50 ([4]; average over wt-KRAS lines): 100 µM; inhibition at 50 µM [8]: 0%; IC50 ([5]; average over mut-KRAS lines): 16.6 µM
19 | CCOC(=O)/C=C/c1c(NS(=O)(=O)c2cccs2)cc2c(c1OC)OCCO2 [Compound 113] | – | – | 25 µM | 13.7 to 100 µM | 100 µM | 55.1 µM | –
